Laboratory results: patent US20120046246A1, “METHODS FOR TREATING OSTEOCLAST-RELATED DISEASE, COMPOUNDS AND COMPOSITIONS THEREOF” (University of Florida Research Foundation, priority 2008, published 2012)
Where two headings read alike, the source gives them in different places.

What was measured:
[1] = molecular target: T1, interaction between recombinantly-expressed B2 subunit and pure rabbit muscle F-actin (Homo sapiens, UniProt P21281); experiment: pelleting assay of B subunit binding to F-actin
T1 construct: made in house
Experimental: Twenty-one small molecules are tested for their ability to block interaction between recombinantly-expressed B2 subunit and pure rabbit muscle F-actin.
Recombinant B subunit (1 μM) plus/minus F-actin (2 μM)) plus/minus 100 uM inhibitor compounds were incubated for 10 minutes in 20 mM Tris/HCl (pH 7.5), 100 mM NaCl, 1 mM MgCl2, 0.2 mM CaCl2, 0.5 mM ATP, 0.2 mM DTT, then subjected to ultracentrifugation at 180,000×g for 45 min. Supernatants and pellets were collected in SDS-PAGE sample buffer, separated by SDS-PAGE, stained with Coomassie Blue, and densitometry was performed using a Flurchem 8000 (Alpha Innotech, San Leandro Calif.).
The percent inhibition was determined by densitometry of SDS-PAGE gels. The raw densitometric number obtained of the recombinant B subunit band that was pelleted with F-actin, but with no compound present, represented 0% inhibition. The amount of the raw densitometric number of the amount of recombinant B subunit that pelleted with no actin present, but with compound, represented 100% inhibition. The amount of recombinant B subunit that pelleted with actin and the compound being tested was placed as a percentage assuming a linear response.

[2] = tested on: osteoclast formation in calcitriol-stimulated mouse marrow cultures; experiment: osteoclastogenesis stimulated by calcitriol in mouse marrow cultures; format: cell-based; conditions: concentration not given
Experimental: Enoxacin and Binhib 2 were then tested for their effects on osteoclastogenesis stimulated by calcitriol in mouse marrow cultures. The mixed cultures represent a model for the complex interactions that regulate bone resorption in vivo. […] Osteoclast and osteoblast-containing mouse bone marrow cultures are obtained as above described. 4-6-week-old Swiss-Webster mice (Harlan, Indianapolis, Ind.) are sacrificed by cervical dislocation. Femurs and tibias are dissected free of adherent tissue; the marrow is expelled by cutting both bone ends and flushing the marrow cavity with MEM D10 using a 25-gauge needle. The marrow cells are washed twice and plated in 6 well plates at a concentration of 1×10^6 nucleated cells/cm^2 in MEM D1 0 containing 10 nM calcitriol. Cultures are fed on the third and fifth day of culture by replacing half of the medium with fresh medium containing calcitriol. Cultures are treated with enoxacin at 10 μM or vehicle control on Day 1, and when the media is refreshed.

[3] = tested on: mature osteoclasts on bone slices; experiment: ruffled membrane formation / V-ATPase trafficking in mature osteoclasts on bone slices (anti-E subunit antibody); format: cell-based; conditions: concentration not given
Experimental: FIG. 7 depicts that enoxacin (10 μM) blocks ruffled membrane formation. Mature osteoclasts on bone slices were treated with enoxacin or vehicle control for 3 days, then fixed and labeled with an anti-E subunit antibody. […] Arrows point to representative osteoclasts; The present inventors also tested the effects of enoxacin on osteoclasts that were already mature and loaded onto bone slices. In this experiment, mature osteoclasts on bone slices were treated with enoxacin or vehicle control for 3 days, then fixed and labeled with an anti-E subunit antibody. Control osteoclasts produced many ruffled membranes.

[4] = 100 uM inhibitor compound, recombinant B subunit 1 μM, F-actin 2 μM, densitometry of SDS-PAGE gels
[5] = 100 uM inhibitor compound, recombinant B subunit 1 μM, F-actin 2 μM, densitometry of SDS-PAGE gels, read-out: % inhibition

T1 sequence (P21281 whole entry): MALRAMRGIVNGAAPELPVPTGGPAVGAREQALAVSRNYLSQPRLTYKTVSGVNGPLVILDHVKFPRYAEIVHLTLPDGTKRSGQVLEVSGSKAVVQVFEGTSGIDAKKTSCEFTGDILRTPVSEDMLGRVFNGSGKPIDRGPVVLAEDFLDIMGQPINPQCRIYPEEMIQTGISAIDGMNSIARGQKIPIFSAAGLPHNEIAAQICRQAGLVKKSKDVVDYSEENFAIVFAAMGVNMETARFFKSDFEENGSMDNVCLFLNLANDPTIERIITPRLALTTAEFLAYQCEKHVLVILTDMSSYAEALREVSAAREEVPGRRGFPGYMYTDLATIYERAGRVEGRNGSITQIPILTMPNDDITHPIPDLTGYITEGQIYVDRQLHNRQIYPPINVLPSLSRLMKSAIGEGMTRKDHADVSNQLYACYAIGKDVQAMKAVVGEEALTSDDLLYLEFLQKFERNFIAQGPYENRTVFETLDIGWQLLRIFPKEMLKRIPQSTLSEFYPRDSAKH

Molecule	% inhibition [1, 4] [%]	inhibition at 100 µM [1, 5] [%]	also measured
O=C(C[N+]12CN3CN(CN(C3)C1)C2)c1ccc(Br)cc1 [Binhib 24, 1-(4-bromophenyl)-2-(15,3,5,7-tetraazatricyclo[3.3.1.1˜3,7˜]dec-1-yl)ethanone]	13		
BrC=C(Br)C[N+]12CN3CN(CN(C3)C1)C2 [Binhib 18, 1-(2,3-dibromo-2-propenyl)-15,3,5,7-tetraazatricyclo[3.3.1.1˜3,7˜]decane]	2		
CCOC(=O)C(Cc1c[nH]c2ccccc12)NCCN (stereo not shown) [Binhib 5, ethyl 2-((2-aminoethyl)amino)-3-(1H-indol-3-yl)propanoate]		0	
COc1ccc(C(=O)C[N+]23CN4CN(CN(C4)C2)C3)cc1 [Binhib 41, 1-(4-methoxyphenyl)-2-(15,3,5,7-tetraazatricyclo[3.3.1.1˜3,7˜]dec-1-yl)ethanone]	4		
2-((4-methyl-1-piperazinyl)methyl)-15-indeno[1,2,3-de]quinazolin-1-ol [Binhib 15]	0		
Cc1nc2ccccc2cc1C[N+]12CN3CN(CN(C3)C1)C2 [Binhib 30, 1-((2-methyl-3-quinolinyl)methyl)-15,3,5,7-tetraazatricyclo[3.3.1.1˜3,7˜]decane]	4		
O=C(C[N+]12CN3CN(CN(C3)C1)C2)c1ccc2ccccc2c1 [Binhib 36, 1-(2-naphthyl)-2-(15,3,5,7-tetraazatricyclo[3.3.1.1˜3,7˜]dec-1-yl)ethanone]	0		
COc1cccc(CN2CCN(N)CC2)c1 [Binhib 17, 4-(3-methoxybenzyl)-1-piperazinamine]		0	
Clc1cc(Cl)c(C[N+]23CN4CN(CN(C4)C2)C3)cc1Cl.[Cl-] [Binhib 1, {3,5,7-Triaza-1-azoniatricyclo[3.3.1.13,7]decane}{1-[(2,}4,5-trichlorophenyl)methyl]-, chloride]	5		
CN1N(C)C12CCC1(C)C(CCC3C1CCC1(C)C3CCC1(C)O)C2 (stereo not shown) [Binhib 3, 1′,2′,10,13,17-pentamethylhexadecahydrospiro[cyclopenta[a]phenanthrene-3,3′-diaziridin]-17-ol]			inhibition at 100 µM [1]: 7%
S=C(S)NCCN1CCNCC1 [Binhib 38, 2-(1-piperazinyl)ethylcarbamodithioic acid]		3	
O=C(C[N+]12CN3CN(CN(C3)C1)C2)c1ccc(Cl)cc1.[I-] [Binhib 2, 3,5,7-triaza-1-azoniatricyclo[3.3.1.13,7]decane, 1-[2-(4-chlorophenyl)-2-oxoethyl]-iodide]		65	osteoclast formation [2]: without affecting; ruffled membrane formation [3]: blocks; B subunit actin interactions in vitro [1]: inhibits
Cn1c(=O)c2nc(SSc3nc4c(=O)n(C)c(=O)n(C)c4[nH]3)[nH]c2n(C)c1=O [Binhib 31, 8,8′-disulfanediylbis(1,3-dimethyl-1H-purine-2,6(3H,9H)-dione)]		2	
ON=C(C[N+]12CN3CN(CN(C3)C1)C2)c1ccc(I)cc1 [Binhib 10, 1-(4-iodophenyl)-2-(15,3,5,7-tetraazatricyclo[3.3.1.1˜3,7˜]dec-1-yl)ethanone oxime]	3		
CC(C)Cc1ccc(C[N+]23CN4CN(CN(C4)C2)C3)cc1 [Binhib 20, 1-(4-isobutylbenzyl)-15,3,5,7-tetraazatricyclo[3.3.1.1˜3,7˜]decane]	5		
2,4-diamino-5-(4-((2-aminoethyl)amino)-3-(hydroxy(oxido)amino)phenyl)-6-ethylpyrimidine [Binhib 33]	1		
Brc1ccc(C[N+]23CN4CN(CN(C4)C2)C3)cc1.[Br-] [Binhib 9, 3-(5,7-Triaza-1-azoniatricyclo[3.3.1.13,7]decane) (1-[(4-bromophenyl)methyl])bromide]	21		
COC(=O)C1CC23CCCN4CCC5(c6cccc(OC)c6N(C=O)C15CC2)C43 (stereo not shown) [Binhib 35, methyl 1-formyl-17-methoxyaspidofractinine-3-carboxylate]	4		
C=C1C23C(CCCC2NC)CCC2(C)C4C(C(C)=O)C(O)CC4(C)CCC123 (stereo not shown) [Binhib 26, 1-(2-hydroxy-3a,12a-dimethyl-7-(methylamino)-6-methylenehexadecahydro-cyclopenta[a]cyclopropa[e]phenanthren-1-yl)ethanone]		0	
